# Test results published in patent publication US5541163A, “Renin inhibiting N-(2-amino-2-oxoethyl)butanediamide derivatives” (Bio-Mega/Boehringer Ingelheim Research Inc., priority 1993, dated 1996).
# Target: T1, human renin (Homo sapiens, UniProt P00797)
# T1 construct: A human plasma pool is used as the source of both the substrate (angiotensinogen) and the enzyme (renin); from tissue; host or cells: human plasma pool
# T1 sequence (P00797 67-406): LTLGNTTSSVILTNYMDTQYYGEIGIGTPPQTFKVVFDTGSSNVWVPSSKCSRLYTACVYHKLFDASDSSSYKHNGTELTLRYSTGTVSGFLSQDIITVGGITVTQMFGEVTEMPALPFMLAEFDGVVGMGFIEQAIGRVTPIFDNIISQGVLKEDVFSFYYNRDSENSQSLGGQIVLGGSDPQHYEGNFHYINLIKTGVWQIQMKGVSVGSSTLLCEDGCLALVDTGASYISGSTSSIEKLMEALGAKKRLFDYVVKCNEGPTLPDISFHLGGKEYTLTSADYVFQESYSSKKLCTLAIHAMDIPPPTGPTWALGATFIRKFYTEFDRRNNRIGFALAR
# Assay: Plasma renin assay (inhibition of human renin, angiotensin I by RIA)
# Format: biochemical
# Details: human plasma pool, pH 6.0, 2 h incubation at 37°
# Description: The assay is performed as follows: The test compound (i.e. the inhibitor) is dissolved in dimethylsulfoxide (1 mM stock solution) and diluted with an aqueous buffer solution of 270 mM 2-(N-morpholino)ethanesulfonic acid and 1% human serum albumin (pH 5.85, also containing dimercaprol and 8-hydroxyquinoline sulfate in accordance with the instructions of the RIA kit noted below) to give an assay mixture in which the final dimethylsulfoxide content is 1% (v/v).
# A human plasma pool is used as the source of both the substrate (angiotensinogen) and the enzyme (renin). The reaction is initiated by the addition of 50 μL of human plasma pool to 50 μL of various concentrations of inhibitor in the 1% dimethylsulfoxide assay buffer. The plasma renin activity is measured by the amount of angiotensin I generated at pH 6.0 following a 2 h incubation at 37°.
# Quantitation of angiotensin I is performed by radioimmunoassay (RIA kit from New England Nuclear-Dupont, Mississauga, ON, Canada). The enzymatic activity of renin is expressed in ng of angiotensin I generated (/mL/2 h). The extent of inhibition of the reaction is determined from the amount of angiotensin I generated in reference to a control prepared without inhibitor. Nonlinear regression analysis is used to calculate the IC50 values, i.e. the molar concentration of the test compound required to cause a 50% inhibition of the enzyme activity.
row,SMILES,IC50 [nM]
1,"CC(C)OC(=O)[C@H](O)[C@H](CC1CCCCC1)NC(=O)[C@@H](CC(=O)N(CC(=O)N(C)C)[C@@H](C)c1ccccc1)Cc1csc(N)n1 [Compound 45, N^4-[2-(dimethylamino)-2-oxoethyl]-N^4-[1(S)-phenylethyl]-N^4-[1(S)-(cyclohexylmethyl)-2(R)-hydroxy-3-(1-methylethoxy)-3-oxopropyl]-2(R)-[(2-amino-4-thiazolyl)methyl]-butanediamide]",16
2,"CC(C)C[C@H](O)[C@H](O)[C@H](CC1CCCCC1)NC(=O)[C@@H](CC(=O)N(CC(=O)N(C)C)CC1CCCCC1)Cc1cccnc1 [Compound 58, N^4-(cyclohexylmethyl)-N^4-[2-(dimethylamino)-2-oxoethyl]-N^1-[1(S)-(cyclohexylmethyl)-2(R),3(S)-dihydroxy-5-methylhexyl]-2(R)-(3-pyridinylmethyl)butanediamide]",10
3,"COc1ccc(CN(CC(=O)N(C)C)C(=O)C[C@@H](CC2CC2)C(=O)N[C@@H](CC2CCCCC2)[C@@H](O)[C@@H](O)CC(C)C)cc1 [Compound 10, N^4-[2-(dimethylamino)-2-oxoethyl]-N^4-[(4-methoxyphenyl)methyl]-N^1-[1(S)-(cyclohexylmethyl)-2(R),3(S)-dihydroxy-5-methylhexyl]-2(R)-(cyclopropylmethyl)butanediamide]",440
4,"CC(C)C[C@H](O)[C@H](O)[C@H](CC1CCCCC1)NC(=O)[C@@H](CC(=O)N(CC(=O)N1CCOCC1)[C@@H](C)c1ccccc1)CC1CC1 [Compound 33, N^4-[1(S)-phenylethyl-N^4-(2-morpholino-2-oxoethyl)-N^1-1(S)-(cyclohexylmethyl)-2(R),3(S)-dihydroxy-5-methylhexyl]-2(R)-(cyclopropylmethyl)butanediamide]",120
5,"CC(C)C[C@H](O)[C@H](O)[C@H](CC1CCCCC1)NC(=O)[C@@H](CC(=O)N(CC(=O)N(C)C)[C@@H](C)c1ccccc1)Cc1cccs1 [Compound 32, N^4-(2-(dimethylamino)-2-oxoethyl]-N^4-(1(S)-phenylethyl]-N^1-[1(S)-(cyclohexylmethyl)-2(R),3(S)-dihydroxy-5-methylhexyl]-2(S)-(2-thienylmethyl)butanediamide]",13
6,"CC(C)C[C@H](O)[C@H](O)[C@H](CC1CCCCC1)NC(=O)[C@@H](CC(=O)N(CC(=O)N1CCOCC1)CC1CCCCC1)Cc1nccs1 [Compound 39, N^4-(cyclohexylmethyl)-N^4-(2-morpholino-2-oxoethyl)-N^1-[1(S)-(cyclohexylmethyl)-2(R),3(S)-dihydroxy-5-methylhexyl]-2(S)-(2-thiazolylmethyl)butanediamide]",1.6
7,"Cc1nc(C[C@H](CC(=O)N(CC(=O)N(C)C)CC2CCCCC2)C(=O)N[C@@H](CC2CCCCC2)[C@@H](O)[C@@H](O)CC(C)C)cs1 [Compound 47, N^4-(cyclohexylmethyl)-N^4-[2-(dimethylamino)-2-oxoethyl]-N^1-[1(S)-(cyclohexylmethyl)-2(R),3(S)-dihydroxy-5-methylhexyl]-2(R)-[(2-methyl-4-thiazolyl)methyl]butanediamide]",18.5
8,"CC(C)C[C@H](O)[C@H](O)[C@H](CC1CCCCC1)NC(=O)[C@@H](CC(=O)N(CC(=O)N(C)CCc1ccccn1)CC1CCCCC1)CC1CC1 [Compound 46, N^4-(cyclohexylmethyl)-N^4 -{2-{methyl-[2-(2-pyridinyl)-ethyl]amino}-2-oxoethyl}-N^1-[1(S)-(cyclohexylmethyl)-2(R),3(S)-dihydroxy-5-methylhexyl]-2(R)-(cyclopropylmethyl)butanediamide]",12
9,"CNC(=O)CN(Cc1ccccc1)C(=O)C[C@@H](CC1CC1)C(=O)N[C@@H](CC1CCCCC1)[C@@H](O)[C@@H](O)CC(C)C [Compound 6, N^4-benzyl-N^4-[2-(methylamino)-2-oxoethyl]-N^1-[1(S)-(cyclohexylmethyl)-2(R),3(S)-dihydroxy-5-methylhexyl]-2(R)-(cyclopropylmethyl)butanediamide]",350
10,"CC(C)C[C@H](O)[C@H](O)[C@H](CC1CCCCC1)NC(=O)[C@@H](CC(=O)N(CC(=O)N(C)C)CC1CCCCC1)Cc1ccccc1 [Compound 55, N^4-(cyclohexylmethyl)-N^4-[2-(dimethylamino)-2-oxoethyl]-N^1-[1(S)-(cyclohexylmethyl)-2(R),3(S)-dihydroxy-5-methylhexyl]-2(R)-(phenylmethyl)butanediamide]",16

# Second part, the compound after the results:
row,IC50 [nM],SMILES
1,18,"CC(C)OC(=O)[C@H](O)[C@H](CC1CCCCC1)NC(=O)[C@@H](CC(=O)N(CC(=O)N(C)CCc1ccccn1)CC1CCCCC1)Cc1csc(N)n1 [Compound 74, N^4-(cyclohexylmethyl)-N^4 -{2-{methyl-[2-(2-pyridinyl)ethyl]amino}-2-oxoethyl}-N^1-[1(S)-(cyclohexylmethyl)-2(R)-hydroxy-3-(1-methylethoxy)-3-oxopropyl]-2(R)-[(2-amino-4-thiazolyl)methyl]butanediamide]"
2,3,"Cc1cc(C)cc(CN(CC(=O)N(C)C)C(=O)C[C@@H](Cc2csc(N)n2)C(=O)N[C@@H](CC2CCCCC2)[C@@H](O)[C@@H](O)CC(C)C)c1 [Compound 73, N^4-[2-(dimethylamino)-2-oxoethyl]-N^4-[(3,5-dimethylphenyl)methyl]-N^1-[1(S)-(cyclohexylmethyl)-2(R),3(S)-dihydroxy-5-methylhexyl]-2(R)-[(2-amino-4-thiazolyl)methyl]butanediamide]"
3,6,"CC(C)C[C@H](O)[C@H](O)[C@H](CC1CCCCC1)NC(=O)[C@@H](CC(=O)N(CC(=O)N(C)CCc1ccccn1)Cc1nccs1)Cc1csc(N)n1 [Compound 86, N^4 -{2-{methyl[2-(2-pyridinyl)ethyl]-amino}-2-oxoethyl}-N^4-(2-thiazolylmethyl)-N^1-[1(S)-(cyclohexylmethyl)-2(R),3(S)-dihydroxy-5-methylhexyl]-2(R)-[(2-amino-4-thiazolyl)methyl]-butanediamide]"
4,4,"Cc1ccsc1CN(CC(=O)N(C)CCc1ccccn1)C(=O)C[C@@H](Cc1csc(N)n1)C(=O)N[C@@H](CC1CCCCC1)[C@@H](O)[C@@H](O)CC(C)C [Compound 88, N^4 -{2-{methyl[2-(2-pyridinyl)ethyl]-amino}-2-oxoethyl}-N^4-[(3-methyl-2-thienyl)methyl]-N^4-[1(S)-(cyclohexylmethyl)-2(R),3(S)-dihydroxy-5-methylhexyl]-2(R)-[(2-amino-4-thiazolyl)methyl]butanediamide]"
5,0.5,"CC(C)C[C@H](O)[C@H](O)[C@H](CC1CCCCC1)NC(=O)[C@@H](CC(=O)N(CC(=O)N(C)CCN1CCOCC1)CC1CCCCC1)Cc1csc(N)n1 [Compound 90, N^4-(cyclohexylmethyl)-N^4 -{2-{methyl-(2-morpholinoethyl)amino]-2-oxoethyl}-N^1-[(S)-(cyclohexylmethyl)-2(R),3(S)-dihydroxy-5-methylhexyl]-2(R)-[(2-amino-4-thiazolyl)methyl]-butanediamide]"
6,1,"CC(C)C[C@H](O)[C@H](O)[C@H](CC1CCCCC1)NC(=O)[C@@H](CC(=O)N(CC(=O)N(C)CCc1ccccn1)Cc1ccco1)Cc1csc(N)n1 [Compound 79, N^4-(2-furanylmethyl)-N^4 -{2-{methyl-[2-(2-pyridinyl)ethyl)amino}-2-oxoethyl}-N^1-[1(S)-(cyclohexylmethyl)-2(R),3(S)-dihydroxy-5-methylhexyl]-2(R)-[(2-amino-4-thiazolyl)-methyl]butanediamide]"
7,7,"CC(C)C[C@H](O)[C@H](O)[C@H](CC1CCCCC1)NC(=O)[C@@H](CC(=O)N(CC(=O)N(C)C)CC1CCCCCC1)Cc1cccnc1 [Compound 70, N^4-(cycloheptylmethyl)-N^4-[2-(dimethylamino)-2-oxoethyl]-N^1-[1(S)-(cyclohexylmethyl)-2(R),3(S)-dihydroxy-5-methylhexyl]-2(R)-(3-pyridinylmethyl)butanediamide]"
8,1,"CC(C)C[C@H](O)[C@H](O)[C@H](CC1CCCCC1)NC(=O)[C@@H](CC(=O)N(CC(=O)N(C)C)CC1CCCC1)Cc1csc(N)n1 [Compound 85, N^4-(cyclopentylmethyl)-N^4-[2-(dimethylamino)-2-oxoethyl]-N^1-[1(S)-(cyclohexylmethyl)-2(R),3(S)-dihydroxy-5-methylhexyl]-2(R)-[(2-amino-4-thiazolyl)methyl]butanediamide]"
9,5,"CCCC(CCC)CN(CC(=O)N(C)CCc1ccccn1)C(=O)C[C@@H](Cc1csc(N)n1)C(=O)N[C@@H](CC1CCCCC1)[C@@H](O)[C@@H](O)CC(C)C [Compound 92, N^4 -{2-{methyl[2-(2-pyridinyl)ethyl]-amino}-2-oxoethyl}-N^4-(2-propylpentyl)-N^1-[1(S)-(cyclohexylmethyl)-2(R),3(S)-dihydroxy-5-methylhexyl]-2(R)-[(2-amino-4-thiazolyl)methyl]-butanediamide]"
